Results taken from US20170209447A1, “Use of PNP Inhibitor to Treat Relapse of Malignancy after Hematopoietic Stem Cell Transplant” (Nitor Therapeutics, priority 2014, published 2017).
Like-named read-outs stand apart in the source and are kept apart here.

How the values were obtained:
human TLR7 = target: T1, human TLR7 (Homo sapiens, UniProt Q9NYK1); assay: TLR ligand screening: NF-κB SEAP reporter in HEK293 cells expressing TLR7; assay type: cell-based; conditions: one concentration: NTR001 10 uM, Inosine 100 uM, triplicate, FIG. 2
T1 construct: expressed in transfected cells; host or cells: HEK293
T1 sequence (Q9NYK1 27-1049): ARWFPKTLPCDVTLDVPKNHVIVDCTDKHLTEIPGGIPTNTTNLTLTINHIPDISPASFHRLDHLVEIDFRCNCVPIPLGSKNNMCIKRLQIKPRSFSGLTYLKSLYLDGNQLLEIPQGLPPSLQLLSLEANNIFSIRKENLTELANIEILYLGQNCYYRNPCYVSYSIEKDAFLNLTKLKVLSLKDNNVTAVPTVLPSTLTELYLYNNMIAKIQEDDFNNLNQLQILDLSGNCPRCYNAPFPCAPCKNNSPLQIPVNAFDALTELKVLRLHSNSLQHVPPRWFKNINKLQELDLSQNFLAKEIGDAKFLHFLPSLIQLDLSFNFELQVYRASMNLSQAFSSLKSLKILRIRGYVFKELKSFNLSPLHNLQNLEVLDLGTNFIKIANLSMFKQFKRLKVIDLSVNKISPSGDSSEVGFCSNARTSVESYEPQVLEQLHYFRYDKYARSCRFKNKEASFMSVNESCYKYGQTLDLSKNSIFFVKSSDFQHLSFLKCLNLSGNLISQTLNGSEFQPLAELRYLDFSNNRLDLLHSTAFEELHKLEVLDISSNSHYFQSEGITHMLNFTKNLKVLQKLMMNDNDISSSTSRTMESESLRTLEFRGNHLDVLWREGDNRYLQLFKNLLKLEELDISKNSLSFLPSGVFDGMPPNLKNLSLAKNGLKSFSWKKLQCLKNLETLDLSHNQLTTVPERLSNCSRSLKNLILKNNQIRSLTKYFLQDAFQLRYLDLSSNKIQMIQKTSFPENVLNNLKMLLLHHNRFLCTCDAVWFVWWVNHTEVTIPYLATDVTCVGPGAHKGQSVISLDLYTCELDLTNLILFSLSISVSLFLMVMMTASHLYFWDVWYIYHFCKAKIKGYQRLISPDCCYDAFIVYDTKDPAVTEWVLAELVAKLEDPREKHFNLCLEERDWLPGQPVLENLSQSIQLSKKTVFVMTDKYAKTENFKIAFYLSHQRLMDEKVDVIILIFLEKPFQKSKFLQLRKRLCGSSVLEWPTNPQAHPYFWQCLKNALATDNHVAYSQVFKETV
Procedure: (§1) Toll-Like Receptor (TLR) Ligand Screening: In-vitro Activity of the PNPi, Guanosine and Inosine on Seven Different Human TLRs (TLR2, 3, 4, 5, 7, 8 and 9) as a Potential Agonist.
(§2) Method: TLR stimulation is tested by assessing NF-KB activation in HEK293 cells expressing a given TLR. The Secreted Embryonic Alkaline Phosphatase (SEAP) reporter is under the control of a promoter inducible by the transcription factor NF-κB.
(§3) This reporter gene allows the monitoring of signaling through the TLR, based on the activation of NF-κB. The compounds are evaluated at one concentration and compared to control ligands. This step is performed in triplicate.

human TLR8 = target: T2, human TLR8 (Homo sapiens, UniProt Q9NR97); assay: TLR ligand screening: NF-κB SEAP reporter in HEK293 cells expressing TLR8; assay type: cell-based; conditions: one concentration: NTR001 10 uM, Inosine 100 uM, triplicate, FIG. 2
T2 construct: expressed in transfected cells; host or cells: HEK293
T2 sequence (Q9NR97 27-1041): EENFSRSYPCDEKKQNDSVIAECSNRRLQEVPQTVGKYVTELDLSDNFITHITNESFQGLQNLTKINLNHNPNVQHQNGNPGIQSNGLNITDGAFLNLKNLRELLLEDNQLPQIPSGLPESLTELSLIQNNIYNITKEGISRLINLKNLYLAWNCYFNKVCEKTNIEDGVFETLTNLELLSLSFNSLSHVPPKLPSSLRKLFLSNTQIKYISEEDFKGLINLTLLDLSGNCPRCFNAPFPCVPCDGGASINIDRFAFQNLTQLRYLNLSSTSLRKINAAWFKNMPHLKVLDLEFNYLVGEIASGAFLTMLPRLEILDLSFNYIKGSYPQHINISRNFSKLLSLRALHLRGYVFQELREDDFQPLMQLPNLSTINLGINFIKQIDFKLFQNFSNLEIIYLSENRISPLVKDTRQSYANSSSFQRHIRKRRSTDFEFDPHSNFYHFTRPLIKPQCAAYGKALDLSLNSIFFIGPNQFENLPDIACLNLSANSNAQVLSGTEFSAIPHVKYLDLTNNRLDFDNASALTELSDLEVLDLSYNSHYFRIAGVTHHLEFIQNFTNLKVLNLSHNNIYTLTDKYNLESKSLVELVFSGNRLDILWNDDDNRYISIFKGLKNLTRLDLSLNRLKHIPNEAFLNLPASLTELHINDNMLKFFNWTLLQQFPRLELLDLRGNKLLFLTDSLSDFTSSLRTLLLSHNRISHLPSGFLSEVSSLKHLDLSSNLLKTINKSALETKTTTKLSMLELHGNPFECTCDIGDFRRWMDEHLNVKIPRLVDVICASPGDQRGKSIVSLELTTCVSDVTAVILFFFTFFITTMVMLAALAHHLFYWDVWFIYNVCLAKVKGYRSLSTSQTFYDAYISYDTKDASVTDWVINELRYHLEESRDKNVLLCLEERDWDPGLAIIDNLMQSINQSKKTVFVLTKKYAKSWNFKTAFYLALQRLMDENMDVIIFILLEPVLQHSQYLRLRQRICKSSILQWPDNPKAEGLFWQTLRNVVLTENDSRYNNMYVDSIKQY
Procedure: as §1, §2, §3

B16 tumors [1] = conditions: NTR001 60 mg/kg PO; CTLA4-Ab 100, 50, 50 ug IP; days 0, 3 and 6; FIG. 11
tetanus toxoid vaccine = assay: PNPi as adjuvant in tetanus toxoid vaccine efficacy study (tetanus toxoid mouse model); assay type: in vivo, mice; conditions: compared to vehicle treated group
Procedure: This Example Evaluates PNPi as an Adjuvant in Tetanus Toxoid Vaccine Efficacy Study.
Method: Tetanus toxoid (TT) was used to vaccinate mice thrice, two weeks apart. Mice were treated by oral administration of compounds NTR001 and NTR002 and serum was collected at various time points for antibody titer and interferon-g analysis. Mice in Groups 2-6 (Table 2) are vaccinated subcutaneously with 0.1 ml tetanus toxoid vaccine on DAYS 0, 14 and 28. Mice in Group 1 (Table 1) received no vaccine. Antibody titers for DAYS 38 are determined by ELISA using tetanus toxoid coated microtiter plates and anti-mouse conjugate. Sera from DAY 30 are assayed by ELISA for interferon-g.

B16 tumors [2] = assay: PNPi as anticancer agent in mouse melanoma model; assay type: in vivo, C57BL/6 mice
Procedure: Evaluation of PNPi as Anticancer Agent in Mouse Melanoma Model.
Treatment with the NTR001 was initiated on day 6 after injection of tumor cells. Tumor volume and survival were recorded every 3-4 days.

Compound	stimulatory effect on human TLR7 (NF-κB activation) (human TLR7)	stimulatory effect on human TLR8 (NF-κB activation) (human TLR8)	tumor volume (B16 tumors [1])	serum interferon-g levels (tetanus toxoid vaccine; day 30, ELISA, high dose group 60 mg/kg p.o., FIG. 4)	serum tetanus toxoid antibody titers (tetanus toxoid vaccine; day 38, ELISA, p.o. 30 mg/kg (6 days of treatment) and 60 mg/kg (3 days of treatment), FIG. 3)	survival (B16 tumors [2]; NTR001 as single agent (30 mg/kg PO week on/off; 5 mg/kg drinking water 28 days), FIG. 6)	tumor volume (B16 tumors [2]; NTR001 treatment initiated day 6 after tumor cells, 30 mg/kg PO week on/off or 5 mg/kg drinking water, FIG. 5)
OC[C@H]1O[C@@H](n2cnc3c(O)ncnc32)[C@H](O)[C@@H]1O [Inosine, inosine]	do not exhibit a stimulatory effect	do not exhibit a stimulatory effect	–	–	–	–	–
O=c1[nH]cnc2c([C@@H]3N[C@H](CO)[C@@H](O)[C@H]3O)c[nH]c12 [NTR001, 7-[(2S,3S,4R,5R)-3,4-dihydroxy-5-(hydroxymethyl)-2-pyrrolidinyl]-1,5-dihyro-4-H-pyrrolo-[3,2-d]pyrimidin-4-one]	do not exhibit a stimulatory effect	do not exhibit a stimulatory effect	decrease in tumor volume but was not statistically significant	elevated	significantly elevated	0-20%	significant decrease
